This passage reports EC50 results from patent US20100317687A1, “2-BENZOYLIMIDAZO[1,2-a]PYRIDINE DERIVATIVES, PREPARATION THEREOF AND THERAPEUTIC USE THEREOF” (sanofi-aventis, priority 2008, published 2010).

The target in this experiment is T1, mouse Nurr1 receptor (Mus musculus, UniProt Q06219).
T1 construct: a cell line (N2A) endogenously expressing the mouse Nurr1 receptor; host or cells: Neuro-2A (N2A) mouse neuroblastoma cells stably transfected with 8NBRE-luciferase
The experiment is described as follows: In vitro activity on N2A cells (NBRE-luciferase reporter). It counts as cell-based. To be noted: N2A-8NBRE cells, 24 hours incubation. Here is the method:
The activity of the compounds according to the invention was evaluated on a cell line (N2A) endogenously expressing the mouse Nurr1 receptor and stably transfected with the NOT binding response element (NBRE) coupled to the luciferase reporter gene. The EC50 values are between 0.01 and 1000 nM. The tests were carried out according to the procedure described below.
The Neuro-2A cell line comes from a standard commercial source (ATCC). The Neuro-2A clone was obtained from a spontaneous tumour originating from a mouse A albino strain produced by R. J Klebe et al. This Neuro-2A line is subsequently stably transfected with 8NBRE-luciferase. The N2A-8NBRE cells are cultured at a confluence in 75 cm^2 culture flasks containing DMEM supplemented with 10% of foetal calf serum, 4.5 g/l of glucose and 0.4 mg/ml of geneticin. After one week of culture, the cells are recovered with 0.25% trypsin for 30 seconds, and then resuspended in DMEM without phenol red, containing 4.5 g/l of glucose and 10% of Hyclone defatted serum, and deposited in white, transparent-bottom, 96-well plates. The cells are deposited in a proportion of 60 000 per well in 75 μl for 24 hours before the addition of the products. The products are applied in 25 μl and incubated for a further 24 hours. On the day of the measurement, an equivalent volume (100 μl) of Steadylite, is added to each well, followed by a waiting period of 30 minutes in order to obtain complete lysis of the cells and maximum production of the signal. The plates are then measured in a microplate luminescence counter after having been sealed with an adhesive film. The products are prepared in the form of a stock solution at 10^−2 M, and then diluted in 100% of DMSO. Each product concentration is diluted beforehand in culture medium before incubation with the cells thus containing a final concentration of 0.625% of DMSO.
For orientation: A reporter such as luciferase makes a cellular process visible.

T1 sequence (Q06219 whole entry): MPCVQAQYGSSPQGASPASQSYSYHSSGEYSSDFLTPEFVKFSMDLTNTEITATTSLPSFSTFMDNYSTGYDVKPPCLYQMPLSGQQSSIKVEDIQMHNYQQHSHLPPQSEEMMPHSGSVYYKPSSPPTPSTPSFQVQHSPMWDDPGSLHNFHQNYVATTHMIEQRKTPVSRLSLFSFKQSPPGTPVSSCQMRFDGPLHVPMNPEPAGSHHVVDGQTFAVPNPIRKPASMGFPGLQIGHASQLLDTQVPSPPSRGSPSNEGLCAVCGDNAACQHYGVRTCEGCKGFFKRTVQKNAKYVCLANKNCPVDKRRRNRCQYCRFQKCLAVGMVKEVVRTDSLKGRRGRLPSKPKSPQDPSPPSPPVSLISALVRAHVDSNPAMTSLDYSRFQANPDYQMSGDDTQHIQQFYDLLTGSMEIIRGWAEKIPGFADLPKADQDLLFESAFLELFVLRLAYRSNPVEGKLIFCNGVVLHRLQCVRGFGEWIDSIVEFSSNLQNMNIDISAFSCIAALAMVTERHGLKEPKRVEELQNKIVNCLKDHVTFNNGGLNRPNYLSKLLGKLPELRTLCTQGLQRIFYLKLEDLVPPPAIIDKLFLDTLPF

By EC50 is commonly meant the concentration needed to bring the measured effect to its halfway point. High values mean weaker potency, low ones greater potency. `Nc1cccc(-c2ccc3nc(C(=O)c4ccccc4)cn3c2)n1` [Compound 1, [6-(6-Aminopyridin-2-yl)imidazo[1,2-a]pyridin-2-yl](phenyl)-methanone] yielded an EC50 of 700 pM.

Compound `O=C(c1ccccc1)c1cn2cc(-c3cn[nH]c3)ccc2n1` [Compound 4, Phenyl[6-(1H-pyrazol-4-yl)imidazo[1,2-a]pyridin-2-yl]methanone] yielded an EC50 of 500 pM. The EC50 values of the last two compounds are within 1.5-fold of each other.

The compound `O=C(c1ccccc1)c1cn2cc(-c3cccnc3)ccc2n1` [Compound 7, phenyl[(6-pyridin-3-yl)imidazo[1,2-a]pyridin-2-yl]methanone] registered an EC50 of 500 pM.
